Experimental data published in article PMC12474915 (Nature Communications, 2025).

Target: T1, MET1MTase (Arabidopsis thaliana, UniProt P34881)
T1 construct: gene DMT1; residues 621-1534 (lacks RFTS1-2; acidic linker, BAH1-2, MTase), GST tag cleaved by HRV3C, E. coli Rosetta2 (DE3)
T1 sequence (P34881 621-1534): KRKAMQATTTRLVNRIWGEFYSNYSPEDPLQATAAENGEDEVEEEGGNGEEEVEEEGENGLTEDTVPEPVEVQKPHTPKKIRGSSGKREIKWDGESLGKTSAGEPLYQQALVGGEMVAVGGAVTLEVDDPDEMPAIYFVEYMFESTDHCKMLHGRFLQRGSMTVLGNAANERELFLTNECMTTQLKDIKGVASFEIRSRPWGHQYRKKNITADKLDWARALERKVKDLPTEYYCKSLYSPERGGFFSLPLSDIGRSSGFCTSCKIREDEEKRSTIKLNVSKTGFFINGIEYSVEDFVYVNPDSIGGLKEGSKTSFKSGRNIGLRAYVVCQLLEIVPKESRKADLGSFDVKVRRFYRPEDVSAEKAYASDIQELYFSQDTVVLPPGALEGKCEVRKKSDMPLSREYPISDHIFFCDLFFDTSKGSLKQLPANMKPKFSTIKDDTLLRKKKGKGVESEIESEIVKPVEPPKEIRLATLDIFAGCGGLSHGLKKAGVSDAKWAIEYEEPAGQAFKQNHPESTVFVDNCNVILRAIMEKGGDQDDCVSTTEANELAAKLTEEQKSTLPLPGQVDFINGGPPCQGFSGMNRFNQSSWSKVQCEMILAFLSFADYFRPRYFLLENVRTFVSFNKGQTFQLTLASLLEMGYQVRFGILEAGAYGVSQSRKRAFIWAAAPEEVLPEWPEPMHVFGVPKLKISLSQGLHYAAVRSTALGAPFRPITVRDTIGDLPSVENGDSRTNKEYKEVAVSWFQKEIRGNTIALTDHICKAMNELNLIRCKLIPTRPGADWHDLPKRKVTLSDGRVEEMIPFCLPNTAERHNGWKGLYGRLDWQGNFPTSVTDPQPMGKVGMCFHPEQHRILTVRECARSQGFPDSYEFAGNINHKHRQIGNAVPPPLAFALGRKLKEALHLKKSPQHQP
Assay: cryo-EM structure
Assay type: binding
Conditions: ternary complex with 12 bp hemimethylated DNA (5-fluorocytosine covalently bound to Cys1198); formed from added SAM; 2.74 Å

Nc1ncnc2c1ncn2[C@@H]1O[C@H](CSCC[C@H](N)C(=O)O)[C@@H](O)[C@H]1O [SAH, S-adenosyl homocysteine]
cryo-EM structure: catalytic core containing S-adenosyl homocysteine (SAH, a methyl donor cofactor product) binding site
